Experimental data published in patent US8084479B2, “Thiazole compounds and methods of use” (Amgen Inc., priority 2006, dated 2011).
Counter-ions that a name gives are not always drawn.

Molecular target: PKBα (Homo sapiens, UniProt P31749)
Assay: PKB kinase assay (P33-labeled ATP, peptide substrate, filter plate)
Assay type: biochemical
Settings: PKBα enzyme (full length or kinase domain with pleckstrin domain deleted)
Description: The kinase assay for evaluating PKB activity comprises active PKB enzymes, a PKB specific substrate, and P^33-labeled ATP. […] The phosphorylated substrate was captured by a phosphocellulose membrane filter plate (MLLIPORE) and measured by a Wallac Microbeta liquid scintillation counter (Perkin Elmer).

Chain of PKBα (P31749 118-480 limits assumed): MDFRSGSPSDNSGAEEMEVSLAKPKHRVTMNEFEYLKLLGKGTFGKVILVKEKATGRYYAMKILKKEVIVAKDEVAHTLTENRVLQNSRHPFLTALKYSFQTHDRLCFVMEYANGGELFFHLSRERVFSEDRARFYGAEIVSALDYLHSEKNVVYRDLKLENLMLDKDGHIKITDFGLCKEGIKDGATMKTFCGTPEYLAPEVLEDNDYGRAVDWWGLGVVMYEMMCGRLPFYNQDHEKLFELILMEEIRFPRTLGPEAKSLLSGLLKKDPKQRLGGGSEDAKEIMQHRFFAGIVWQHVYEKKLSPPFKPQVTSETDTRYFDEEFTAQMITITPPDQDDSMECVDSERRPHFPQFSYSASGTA

Row | Compound | IC50
1 | CC1C(=O)Nc2ccc(-c3cnc(NC[C@@H](N)Cc4ccccc4)s3)cc21 (stereo partly drawn) [Example 70, 5-(2-((S)-2-amino-3-phenylpropylamino)thiazol-5-yl)-3-methylindolin-2-one] | 1000 to 10000 nM
2 | COCc1nc(NC[C@@H](N)Cc2ccc(C(F)(F)F)cc2)sc1-c1ccc2cnccc2n1 [Example 71, N—((S)-2-amino-3-(4-(trifluoromethyl)phenyl)propyl)-4-(methoxymethyl)-5-(1,6-naphthyridin-2-yl)thiazol-2-amine] | < 50 nM
3 | N[C@H](CNc1ncc(-c2ccc3c(c2)CC(=O)N3)s1)Cc1c[nH]c2ccccc12 [Example 74, 5-(2-((S)-2-amino-3-(1H-indol-3-yl)propylamino)thiazol-5-yl)indolin-2-one ditrifluoroacetate] | 1000 to 10000 nM
4 | Nc1cc2cc(-c3cnc(NC[C@@H](N)Cc4ccc(C(F)(F)F)cc4)s3)ccc2cn1 [Example 75, 6-(2-((S)-2-Amino-3-(4-(trifluoromethyl)phenyl)propylamino)thiazol-5-yl)isoquinolin-3-amine] | < 50 nM
5 | Nc1cc2cc(-c3cnc(NC[C@@H](N)Cc4ccc(Cl)cc4)s3)ccc2cn1 [Example 76, 6-(2-((S)-2-Amino-3-(4-chlorophenyl)propylamino)thiazol-5-yl)isoquinolin-3-amine] | < 50 nM
6 | CCOCc1nc(NC[C@@H](N)Cc2ccc(Cl)cc2)sc1-c1nc2ccncc2s1 [Example 77, N—((S)-2-amino-3-(4-chlorophenyl)propyl)-4-(ethoxymethyl)-5-(thiazolo[5,4-c]pyridin-2-yl)thiazol-2-amine] | 50 to 1000 nM
7 | COc1ccc(C[C@H](N)CNc2ncc(-c3ccc4[nH]c(=O)oc4c3)s2)cc1 [Example 78, 6-(2-((S)-2-amino-3-(4-methoxyphenyl)propylamino)thiazol-5-yl)benzo[d]oxazol-2(3H)-one] | 50 to 1000 nM
8 | CC(C)(O)C#Cc1nc(NC[C@@H](N)Cc2ccc(C(F)(F)F)cc2)sc1-c1ccc2cnccc2c1 [Example 79, 4-(2-((S)-2-Amino-3-(4-(trifluoromethyl)phenyl)propylamino)-5-(isoquinolin-6-yl)thiazole-4-yl)-2-methylbut-3-yn-2-ol] | 50 to 1000 nM
9 | N[C@H](CNc1nc(O)c(-c2ccc(F)c(F)c2)s1)Cc1ccc(Cl)cc1 [Example 80, 2-((S)-2-Amino-3-(4-chlorophenyl)propylamino)-5-(3,4-difluorophenyl)thiazol-4-ol dihydrochloride] | 50 to 1000 nM
10 | CN(C)Cc1nc(NC[C@@H](N)Cc2ccc(C(F)(F)F)cc2)sc1-c1ccc2cnccc2c1 [Example 81, N—((S)-2-Amino-3-(4-(trifluoromethyl)phenyl)propyl)-4-((dimethylamino)methyl)-5-(isoquinolin-6-yl)thiazol-2-amine] | 50 to 1000 nM
11 | Cn1c(=O)[nH]c2ccc(-c3cnc(NC[C@@H](N)Cc4cccc(C(F)(F)F)c4)s3)cc21 [Example 82, 6-(2-((S)-2-Amino-3-(3-(trifluoromethyl)phenyl)-propylamino)thiazol-5-yl)-1-methyl-1H-benzo[d]imidazol-2(3H)-one] | 50 to 1000 nM
12 | N[C@H](CNc1ncc(-c2ccc3cnccc3c2)s1)Cc1ccc(C(F)(F)F)c(F)c1 [Example 83, N—((S)-2-Amino-3-(3-fluoro-4-(trifluoromethyl)phenyl)propyl)-5-(isoquinolin-6-yl)thiazol-2-amine] | < 50 nM
13 | N[C@H](CNc1ncc(-c2ccc3[nH]c(=O)oc3c2)s1)Cc1ccc(Cl)c(F)c1 [Example 84, 6-(2-((S)-2-Amino-3-(4-chloro-3-fluorophenyl)propylamino)thiazol-5-yl)benzo[d]oxazol-2(3H)-one] | < 50 nM
14 | N[C@H](CNc1ncc(-c2ccc3cnccc3c2)s1)Cc1ccc(Cl)c(F)c1 [Example 85, N—((S)-2-Amino-3-(4-chloro-3-fluorophenyl)propyl)-5-(isoquinolin-6-yl)thiazol-2-amine] | < 50 nM
15 | N[C@H](CNc1ncc(-c2ccc3c(c2)CC(=O)N3)s1)Cc1ccc(Cl)c(F)c1 [Example 86, 5-(2-((S)-2-Amino-3-(4-chloro-3-fluorophenyl)propylamino)thiazol-5-yl)indolin-2-one] | < 50 nM
16 | Cn1c(=O)[nH]c2ccc(-c3cnc(NC[C@@H](N)Cc4ccc(Cl)c(F)c4)s3)cc21 [Example 87, 6-(2-((S)-2-Amino-3-(4-chloro-3-fluorophenyl)propylamino)thiazol-5-yl)-1-methyl-1H-benzo[d]imidazol-2(3H)-one] | < 50 nM
17 | C[C@@H](c1ccccc1)[C@H](N)CNc1ncc(-c2ccc3[nH]c(=O)oc3c2)s1 [Example 88, 6-(2-((2S,3S)-2-Amino-3-phenylbutylamino)thiazol-5-yl)benzo[d]oxazol-2(3H)-one] | 1000 to 10000 nM
18 | C[C@@H](c1ccccc1)[C@H](N)CNc1ncc(-c2ccc3[nH]c(=O)n(C)c3c2)s1 [Example 89, 6-(2-((2S,3S)-2-Amino-3-phenylbutylamino)thiazol-5-yl)-1-methyl-1H-benzo[d]imidazol-2(3H)-one] | 1000 to 10000 nM
19 | C[C@@H](c1ccccc1)[C@H](N)CNc1ncc(-c2ccc3c(c2)CC(=O)N3)s1 [Example 90, 5-(2-((2S,3S)-2-Amino-3-phenylbutylamino)thiazol-5-yl)indolin-2-one] | 1000 to 10000 nM
20 | C[C@@H](c1ccccc1)[C@H](N)CNc1ncc(-c2ccc3cnccc3c2)s1 [Example 91, N-((2S,3S)-2-Amino-3-phenylbutyl)-5-(isoquinolin-6-yl)thiazol-2-amine] | 50 to 1000 nM
21 | C[C@@H](c1ccc(C(F)(F)F)cc1)[C@H](N)CNc1ncc(-c2ccc3c(c2)CC(=O)N3)s1 [Example 92, 5-(2-((2S,3S)-2-Amino-3-(4-(trifluoromethyl)phenyl)butylamino)thiazol-5-yl)indolin-2-one methane sulfonic acid salt] | < 50 nM
22 | C[C@@H](c1ccc(C(F)(F)F)cc1)[C@H](N)CNc1ncc(-c2ccc3[nH]c(=O)n(C)c3c2)s1 [Example 93, 6-(2-((2S,3S)-2-amino-3-(4-(trifluoromethyl)phenyl)butylamino)thiazol-5-yl)-1-methyl-1H-benzo[d]imidazol-2(3H)-one] | 50 to 1000 nM
23 | N[C@H](CNc1ncc(-c2ccc3c(c2)CC(=O)N3)s1)Cc1ccc(OCCCCl)cc1 [Example 94, 5-(2-((S)-2-Amino-3-(4-(3-chloropropoxy)phenyl)propylamino)thiazol-5-yl)indolin-2-one] | 1000 to 10000 nM
24 | N[C@H](CNc1ncc(-c2ccc3c(c2)CC(=O)N3)s1)Cc1ccc(OCCCO)cc1 [Example 95, 5-(2-((S)-2-Amino-3-(4-(3-hydroxypropoxy)phenyl)propylamino)-thiazol-5-yl)indolin-2-one] | 1000 to 10000 nM
25 | COCc1nc(NC[C@@H](N)Cc2ccc(Cl)c(Cl)c2)sc1-c1nc2ccncc2s1 [Example 96, N—((S)-2-Amino-3-(3,4-dichlorophenyl)propyl)-4-(methoxymethyl)-5-(thiazolo[5,4-c]pyridin-2-yl)thiazol-2-amine] | < 50 nM
26 | N[C@H](CNc1ncc(-c2nc3ccncc3s2)s1)Cc1ccc(Cl)c(Cl)c1 [Example 97, N—((S)-2-Amino-3-(3,4-dichlorophenyl)propyl)-5-(thiazolo[5,4-c]pyridin-2-yl)thiazol-2-amine] | 50 to 1000 nM
27 | COc1ccc(C[C@H](N)CNc2ncc(-c3nc4ccncc4s3)s2)cc1 [Example 98, N—((S)-2-Amino-3-(4-methoxyphenyl)propyl)-5-(thiazolo[5,4-c]pyridin-2-yl)thiazol-2-amine] | 50 to 1000 nM
